Earlier results as cited in patent publication US10308663B2, “Inhibitors of PTP4A3 for the treatment of cancer” (University of Virginia Patent Foundation, priority 2015, dated 2019).

System: YOP(H?)
Conditions: DiFMUP as a substrate; reported by Hoeger et al.; cited from earlier work

Nc1c[nH]c(=O)c2cc(-c3ccccc3)sc12 [Thienopyridone (5), 7-amino-2-phenylthieno[3,2-c]pyridin-4(5H)-one]
IC50: 61 µM
